The test system of assay [1] is laccase. Nature of the assay: Laccase inhibition (ABTS colorimetric method), fungus garden sample. The class given is biochemical. Conditions: anti-laccase activity, ABTS substrate, read-out: IC50 Leucophorus gongylophorus. On the procedure:
(§1) Crushing was performed in mortars placed on ice, using pestles. […] After obtaining crushed matter of homogeneous texture, the whole was centrifuged. Centrifugation was performed at 4° C., 15,000 rpm for 20 min. For protein precipitation, the supernatant was 80% saturated with ammonium sulphate ((NH4)2SO4). After total dissolution of the ammonium sulphate, the solution obtained is placed at 4° C. for 12 hours. The solution was then centrifuged at a temperature of 4° C., at 15,000 rpm, for 20 min. The pellet obtained is redissolved in a minimum of cold distilled water and then dialysed against 5 litres of distilled water at 4° C. for 12 hours. The extract thus obtained constitutes the crude enzyme extract. These extracts were aliquoted and then stored at -20° C. […] Briefly, ABTS is diluted to 27.4 mg/L in […] buffer solution (pH 5.2). 150 μL of ABTS solution is incubated with 100 μL of test solution and then incubated for 30 min at 37° C. The measurement of OD at 405 nm is used to determine the amount of oxidised ABTS using Beer-Lambert's law (epsilon=36,000 mM). […] The method was published by Bourbonnais et al. in 1990 (Oxidation of non-phenolic substrates. An expanded role for laccase in lignin biodegradation. FEBS, 1990, 267, 99-102). […] The inhibitors selected for analysis are compounds having antioxidant capacity.

Assay [2] concerns laccase. The assay is described as follows: Laccase inhibition (ABTS colorimetric method), ant sample. The class given is biochemical. Conditions: anti-laccase activity, ABTS substrate, read-out: IC50 Acromyrmex octospinosus. On the procedure: as §1
In assay [3] the test system is 5 actinomycete strains isolated from fungus-growing ants. Nature of the assay: Antibacterial activity using discs in Petri dishes, average of 5 actinomycete strains. In kind it is cell-based, Streptomyces, Tsukumurella and Gordonia. On the procedure: (§2) The general principle is to test in solid medium the culture of the strain in the presence of a paper disc impregnated with the molecule to be tested. For each molecule tested at least three dilutions were prepared. In the presence of a molecule, a halo, the diameter of which is related to the intensity of the inhibitory effect, appears around the paper disc. This approach provides a simple way to select antibacterial molecules and to determine the minimum inhibitory concentration (MIC) of bacterial growth.
(§3) Antibacterial activity can be measured in liquid medium (in a liquid bacterial culture) or in solid medium (on an agar Petri dish) by adding a known concentration of antibiotic. In liquid medium, inhibition is measured by an optical density (OD); in solid medium, growth inhibition is estimated by the diameter of the halo corresponding to the zone where no growth is observed.
(§4) From the isolates, a sample is taken. This is suspended in 1 mL of physiological saline solution without measuring OD.
(§5) Inoculation is performed with 100 μL of suspension using a spreader. For undiluted essential oil tests, a disc soaked in essential oil is placed in the centre of the dish. For dilutions (½; ⅕), both discs are placed in the same dish. Dilutions were prepared by diluting the essential oils in sunflower oil. A control dish was prepared and consists of an inoculate in the absence of essential oil. A second control, this time with a disc impregnated with sunflower oil, was also prepared to confirm the absence of an effect. All products were sterilised and the experiments were performed under a hood in sterile conditions.
(§6) After 4 days of growth, the inhibition diameters were measured.
This step made it possible to isolate, from ants belonging to the species Acromyrmex octospinosus, 15 actinomycete strains including 12 belonging to the genus Tsukumurella, two to the genus Streptomyces and one to the genus Gordonia. In total, 5 strains belonging to the genera Streptomyces, Tsukumurella and Gordonia were selected for the analysis of antibacterial substances.

Assay [4] concerns Streptomyces (NA 2B3). Nature of the assay: Antibacterial activity using discs in Petri dishes, strain Streptomyces NA2B3. The class given is cell-based. How it is done: as §2, §3, §4, §5, §6
In assay [5] the test system is laccase activity of Acromyrmex octospinosus and of Leucophorus gongylophorus. Nature of the assay: Laccase inhibition (ABTS), ant and fungus garden samples together. The class given is biochemical. Conditions: for anti-laccase activity (in words): data not shown. How it is done:
Crushing was performed in mortars placed on ice, using pestles. Ants (2 g) and fungus garden (2 g) were crushed in 10 mL of distilled water refrigerated at 4° C. After obtaining crushed matter of homogeneous texture, the whole was centrifuged. Centrifugation was performed at 4° C., 15,000 rpm for 20 min.
For protein precipitation, the supernatant was 80% saturated with ammonium sulphate ((NH4)2SO4). After total dissolution of the ammonium sulphate, the solution obtained is placed at 4° C. for 12 hours. The solution was then centrifuged at a temperature of 4° C., at 15,000 rpm, for 20 min. The pellet obtained is redissolved in a minimum of cold distilled water and then dialysed against 5 litres of distilled water at 4° C. for 12 hours. The extract thus obtained constitutes the crude enzyme extract. These extracts were aliquoted and then stored at −20° C.
Laccase activity was evaluated using 2,2′-azino-bis(3-ethylbenzthiazoline-6-sulphonic acid) (ABTS) as oxidation control substrate. Briefly, ABTS is diluted to 27.4 mg/L in Mcllvain buffer solution (pH 5.2). 150 μL of ABTS solution is incubated with 100 μL of test solution and then incubated for 30 min at 37° C. The measurement of OD at 405 nm is used to determine the amount of oxidised ABTS using Beer-Lambert's law (epsilon=36,000 mM).
The determination of laccase activity is based on a colorimetric method where the substrate ABTS (2,2′-azino-bis(3-ethylbenzthiazoline-6-sulphonic acid) in reduced form (colourless) is oxidised (green colour) in the presence of the enzyme. The method was published by Bourbonnais et al. in 1990 (Oxidation of non-phenolic substrates. An expanded role for laccase in lignin biodegradation. FEBS, 1990, 267, 99-102). To test the inhibition of laccase activity, the molecule tested is added to the reaction mixture in amounts ranging from 0.1 mM to 100 mM. The inhibitors selected for analysis are compounds having antioxidant capacity.

SMILES strings stand for the structures.

The IC50 is the concentration that inhibits the measured activity by half.

Consider `O=C1O[C@H]([C@@H](O)CO)C(O)=C1O` [Ascorbic acid], for which the 50% inhibitory concentration (IC50) in assay [1] and in assay [2] was below 250 µM each time.

The compound `Cc1ccc(C(C)C)cc1O` [Carvacrol] registered an Average inhibition diameters in assay [3] (Table 6, 20%) of 2.4 ± 0.3. In assay [4] (Table 5, 20%), this compound displayed an inhibition diameter of 2.2 ± 0.3 cm.

For the compound `O=CC=Cc1ccccc1` [Cinnamaldehyde], the Average inhibition diameters in assay [3] (Table 6, 10%) turned out to be 2.9 ± 0.6; in assay [3] (Table 6, 20%), 4.5 ± 0.6. Besides, in assay [4] (Table 5, 20%), the inhibition diameter was 3.0 ± 1.5 cm.

For the compound `CC[C@H]1OC(=O)[C@H](C)[C@@H](O[C@H]2C[C@@](C)(OC)[C@@H](O)[C@H](C)O2)[C@H](C)[C@@H](O[C@@H]2O[C@H](C)C[C@H](N(C)C)[C@H]2O)[C@](C)(O)C[C@@H](C)C(=O)[C@H](C)[C@@H](O)[C@]1(C)O` [Erythromycin, reference compound], the Average inhibition diameters in assay [3] (Table 4, 10%) was found to be 3.2 ± 0.4 cm; in assay [3] (Table 4, 20%), 3.6 ± 0.4 cm; in assay [3] (Table 6, 10%), 3.2 ± 0.4; in assay [3] (Table 6, 20%), 3.6 ± 0.4. The inhibition diameter in assay [4] (Table 3, 10%) is 2.2 ± 0.3 cm; in assay [4] (Table 3, 20%) it was 3.6 ± 0.4 cm; in assay [4] (Table 5, 10%) it was 3.5 ± 0.5 cm; in assay [4] (Table 5, 20%), 4.3 ± 0.3 cm.

Take `C=CCc1ccc(O)c(OC)c1` [Eugenol]: in assay [3] (Table 6, 20%), the Average inhibition diameters was 2.9 ± 0.7. For the same compound, the “anti-laccase activity (in words)” value in assay [5] is given as “anti-laccase activity was observed”.

Regarding `COc1cc(/C=C/C(=O)O)ccc1O` [Ferulic acid], the concentration for half-maximal inhibition (IC50) in assay [1] is below 50 µM; in assay [2], below 100 µM.

`O=C(O)c1cc(O)c(O)c(O)c1` [Gallic acid]: the 50% inhibitory concentration (IC50) in assay [1] and in assay [2] was below 50 µM in each case.

In the case of `N[C@@H](CS)C(=O)O` [L-Cysteine], the IC50 in assay [1] and in assay [2] was below 250 µM in each case. Also, in assay [5] (at concentrations above 0.5 mM (FIG. 1)), the “inhibition of laccase activity” value is on record as “more than 80%”.

In the case of `O=S(O)(O)=S` [Sodium thiosulfate], the 50% inhibitory concentration (IC50) in assay [1] and in assay [2] was below 250 µM in each case.

For `COc1cc(C(=O)O)cc(OC)c1O` [Syringic acid], the concentration for half-maximal inhibition (IC50) is below 100 µM in assay [1] and below 250 µM in assay [2].

Take `Cc1ccc(C(C)C)c(O)c1` [Thymol]: the Average inhibition diameters in assay [3] (Table 6, 20%) was determined as 2.2 ± 0.3. In assay [5], the “anti-laccase activity (in words)” value is “anti-laccase activity was observed”. Also, the inhibition diameter in assay [4] (Table 5, 20%) stood at 1.7 ± 0.8 cm.

The values above are taken from patent US10888089B2, “Methods and compositions for controlling fungus-growing ants” (UNIVERSITE PARIS EST CRETEIL VAL DE MARNE, priority 2016, dated 2021).
